In the METLIN SMRT retention time set (Domingo-Almenara et al. 2019) one finds RP-LC retention time data, which are given here for 60 compounds.

This data set can be described thus: gradient 5% acetonitrile 3 min, to 50% in 2 min, to 85% in 15 min, held 3 min, 100 µL/min. Conditions: column: Zorbax Extend-C18 2.1 x 50 mm; eluents: water / acetonitrile, 0.1% formic acid. The procedure, abridged: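 Retention times of pure standards were taken from adduct peaks that were selected by computer and manually inspected. Over 3 months, mixtures of ~100 molecules were run by HPLC–quadrupole time-of-flight mass spectrometry in positive and negative ionization mode. The Zorbax Extend-C18 column (2.1 × 50 mm, 1.8 μm) ran at 100 μL/min in water and acetonitrile, each containing 0.1% formic acid, with 40 μL dead volume and 900 μL dwell volume.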
In turn, `O=C(c1ccc(N2CCOCC2)nn1)N1CCN(c2ncccn2)CC1` yielded an RP-LC retention time of 586 s.
The value for `CSc1cccc2sc(NCc3cccnc3)nc12` was 590 s.
Consider `CCCNC(=O)Cc1cn2cc(Br)ccc2n1`, for which the RP-LC retention time was 570 s.
The value for `COc1c(C(=O)NC(C)(C)C)sc2cccc(F)c12` was 1110 s; that for `O=C(Cn1ccc2sccc2c1=O)Nc1cccc(Cl)c1` was 800 s.
With `CSc1cccc(NC(=O)N2CCC(C)(C(=O)NCc3ccc(C)cc3)CC2)c1` the figure was 917 s; with `CCNc1cc(N2CCCC(CCC(=O)NC(C)C)C2)ncn1` (stereo not given), 601 s; with `CCOC(=O)c1nc(NCCc2ccc(C)cc2)c2c(CC)noc2n1`, 1080 s.
The value for `CC(C)Oc1cncc(C(N)=O)c1` was 583 s; that for `COc1ccc(NC(=O)c2cnc(N3CCN(C(=O)c4ccco4)CC3)nc2N)cc1` was 593 s.
As to `COC(=O)c1c(C)[nH]c(C(=O)N2CCC(CC(=O)NCCc3c[nH]c4ccccc34)CC2)c1C`, the RP-LC retention time stood at 722 s.
The value for `O=C(NCCCN1CCOCC1)c1ccc(-c2ccc(N3CCCCC3)nn2)cc1` was 563 s; that for `CC(C)(C)NC(=O)N1CC(N(Cc2ccncc2)S(C)(=O)=O)C1` was 573 s; that for `Cc1cc(C)cc(N2C(=O)CN(S(C)(=O)=O)CC2(C)C(=O)NCc2ccc(F)cc2)c1` (stereo not given) was 827 s.
In turn, `CCc1nc2cc(N3CCC(C(=O)Nc4ccccc4OC)CC3)cnc2nc1CC` gave an RP-LC retention time of 942 s.
For `CCOC(=O)C1=C(C)NC(=O)NC1c1ccc(OCC(=O)N2CCCCC2)cc1` (stereo not given), the RP-LC retention time amounted to 682 s.
With `CC(C)Cn1cc(S(=O)(=O)N2CCN(c3cccc(Cl)c3)CC2)c2cccnc21` the figure was 1250 s.
The value for `COc1ccc(NS(=O)(=O)/C=C/c2ccccc2)cc1N1CCCC1=O` was 721 s; that for `COC(=O)c1cc2c(=O)n(-c3ccc(OC)cc3OC)ccc2nc1C` was 803 s; that for `O=C(CCc1c(-c2ccccc2)nc2ccccn12)Nc1ccc(F)cc1Cl` was 795 s.
Regarding `Cc1nn(C)c(C)c1CNC(=O)CN1C(=O)C2CCCCN2c2ccc(C(=O)N3CCCC3)cc21` (stereo not given), the RP-LC retention time came to 654 s.
Turning to `CCC(C)C(NC(=O)Cc1ccccc1F)C(=O)Nc1nc2ccccc2[nH]1` (stereo not given), the RP-LC retention time stood at 736 s.
The compound `CCOCCCNC(=O)Nc1ccc2c(c1)CCN2S(=O)(=O)c1ccccc1` returned an RP-LC retention time of 803 s.
The value for `COc1ccc(NC(=O)CSc2cc(N3CCN(c4ccccc4OC)CC3)ncn2)cc1` was 877 s; that for `Cc1nn(C2CCS(=O)(=O)C2)c(C)c1C(=O)O` (stereo not given) was 571 s; that for `O=C(CSc1ccc(-c2cccc([N+](=O)[O-])c2)nn1)NCc1cccs1` was 766 s.
The value for `COC(=O)c1ccccc1NC(=O)CCc1c(-c2ccc(F)cc2)nc2ccccn12` was 724 s; that for `Cc1sc(-c2nc(-c3ccccc3)no2)cc1S(=O)(=O)N1CCN(c2ncccn2)CC1` was 1210 s; that for `CCCNc1cc(N2CCC(CCC(=O)N3CCN(c4ccccc4)CC3)CC2)ncn1` was 603 s.
With `COc1ccc(NC(=O)N2CCC(n3c(C(F)(F)F)nc4cccnc43)CC2)c(OC)c1` the figure was 768 s; with `CS(=O)(=O)N1CCC(OC2CCN(C(=O)NCCc3ccccc3)CC2)CC1`, 724 s.
The compound `COc1ccc(CNC(=O)c2[nH]c3cc(C)sc3c2CN2CCCC2)cc1` yielded an RP-LC retention time of 679 s.
With `CCOc1ccccc1NC(=O)N1c2ccccc2CC1c1nc(C2CC2)no1` (stereo not given) the figure was 1180 s; with `Cc1oc2ccn(Cc3ccc(F)cc3)c(=O)c2c1C(=O)NCCN(C)C1CCCCC1`, 762 s; with `COc1ccc(Cl)cc1NC(=O)N(C)CCc1noc(COc2ccccc2F)n1`, 979 s.
The value for `COc1cc(Cl)c(NC(=O)C2CCN(C(=O)c3cc(-c4ccncc4)n[nH]3)CC2)c(OC)c1` was 629 s.
With `CCC(C)NC(=O)c1ccc2c(ccn2C)c1` (stereo not given) the figure was 779 s.
Compound `Cc1ccc(S(=O)(=O)N2CC(=O)N(c3ccccc3F)C(C)(C(=O)NC3CCCC3)C2)cc1` (stereo not given) came in with an RP-LC retention time of 959 s.
With `COc1ccccc1NC(=O)N1CCCC(Cn2cnc3cccnc32)C1` (stereo not given) the figure was 667 s; with `Cn1c(=O)c2ccn(CC(=O)N3CCN(c4ccccn4)CC3)c2n(C)c1=O`, 546 s; with `CS(=O)(=O)N(Cc1ccccn1)C1CN(C(=O)C2CCC2)C1`, 603 s.
With `C(=N\n1cnnc1)/c1ccc2c(c1)CCC2` the figure was 858 s; with `O=C(NCCc1c[nH]c2ccccc12)C1CCCN(c2nnc(N3CCCC3=O)s2)C1` (stereo not given), 690 s; with `CCCS(=O)(=O)NCc1ccc2c(c1)CCN2C(=O)CC`, 686 s.
With `COc1ccc(-c2ccc(=O)n(Cc3nc(-c4cccc(Br)c4)no3)n2)cc1` the figure was 997 s; with `Cc1ccc(NC(=O)N(C)CCc2noc(COc3ccccc3)n2)cc1`, 892 s; with `O=C(Nc1ccc(Br)cc1F)C1CCN(C(=O)c2cccn2-c2cccnc2)CC1`, 782 s.
Consider `Cn1cc(S(=O)(=O)N2CCC(C(=O)N3CCc4ccccc43)CC2)cc1C(=O)N1CCCC1`, for which the RP-LC retention time came out at 805 s.
The compound `Cc1nc(N2CCCC(C(=O)Nc3ccc4c(c3)OCCO4)C2)c2c(C)c(C)oc2n1` (stereo not given) registered an RP-LC retention time of 846 s.
Compound `Cc1ccc(Cl)cc1NC(=O)C1CCCN(c2nc3ccccc3nc2C(F)(F)F)C1` (stereo not given) returned an RP-LC retention time of 1350 s.
With `CCN1CCCC1CNC(=O)CC1CCN(S(=O)(=O)c2ccc3c(c2)CCN3C(C)=O)CC1` (stereo not given) the figure was 597 s; with `CCc1nc2c(NC(=O)c3ccc(OC)cc3)cccn2n1`, 819 s.
With `COc1ccc(NC(=O)C2CCN(S(=O)(=O)c3ccc4[nH]c(=O)ccc4c3)CC2)c(OC)c1` the figure was 663 s.
On to `Cc1ccc(-c2cn3c(CC(=O)N4CCN(c5cc(Cl)ccc5C)CC4)csc3n2)cc1C`, for which the RP-LC retention time was 1130 s.
With `CC(C)OCCCNC(=O)Cn1c2ccccc2c2cnn(C)c(=O)c21` the figure was 745 s; with `O=C(NC1CC1)c1ccc2c(c1)CCN2C(=O)C1CCC1`, 721 s; with `CCCN1CCN(C(=O)C2CCN(S(=O)(=O)c3cc(C(=O)N4CCCC4)n(C)c3)CC2)CC1`, 574 s.
With `CCC(C(=O)Nc1ccc(C)cc1)n1cnc2nc3c(cc2c1=O)CCCC3` (stereo not given) the figure was 756 s; with `O=C(NCc1ccc(F)cc1F)C1CCN(c2cn[nH]c(=O)c2)CC1`, 639 s.
The value for `Cc1cc(F)ccc1NC(=O)Cn1nc2cc(-c3ccccn3)nc(C)n2c1=O` was 746 s.
